Assay results as given in patent US5284852A, “Angiotensin II receptor blocking 2,3,6-substituted quinazolinones” (American Cyanamid Company, priority 1993, dated 1994).

Target: T1, Angiotensin II Receptor (Bos taurus, UniProt P25104)
T1 construct: The brownish tissue forming the adrenal cortex is scraped off and finely minced with scissors before homogenization; tissue Maxwell-Cohen (local slaughter house); host or cells: beef adrenal cortex, microsomal membranes (100,000×g pellet)
T1 sequence (P25104 1-359): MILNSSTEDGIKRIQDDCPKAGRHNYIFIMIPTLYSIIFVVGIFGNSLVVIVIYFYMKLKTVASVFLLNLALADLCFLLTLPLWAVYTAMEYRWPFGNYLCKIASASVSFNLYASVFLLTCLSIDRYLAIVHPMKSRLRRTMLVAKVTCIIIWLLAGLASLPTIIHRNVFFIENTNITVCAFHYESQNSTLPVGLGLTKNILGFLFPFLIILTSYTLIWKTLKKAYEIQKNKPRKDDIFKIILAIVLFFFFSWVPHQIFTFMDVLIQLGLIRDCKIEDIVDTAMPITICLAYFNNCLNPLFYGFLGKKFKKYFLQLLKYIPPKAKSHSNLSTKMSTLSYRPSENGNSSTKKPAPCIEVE
Assay: Receptor binding assay: displacement of [125I](Sar1,Ile8)AngII from beef adrenal cortex microsomal membranes
Excerpt: Beef adrenals are obtained from a local slaughter house (Maxwell-Cohen). [^125 I](Sar^1,-Ile^8)AngII, S.A. 2200 Ci/mmole, is purchased from Dupont (NEN®, Boston, Mass.). All unlabeled AngII analogs, dimethylsulfoxide (DMSO), nucleotides, bovine serum albumin (BSA) are purchased from Sigma Chemical Co., St. Louis, Mo. U.S.A.
Approximately sixteen (16) to twenty (20) beef adrenal glands are processed as follows: fresh adrenal glands received on crushed ice are cleaned of fatty tissues and the tough membranes encapsulating the glands are removed and discarded. The brownish tissue forming the adrenal cortex is scraped off and finely minced with scissors before homogenization. Care is taken to avoid contamination with medullary tissue during dissection. The scraped cortices are suspended in twenty volumes of an ice-cold buffer medium consisting of 10 mM Tris.HCl (pH 7.4 at 22° C.) and containing 1.0 mM EDTA and 0.2M sucrose. Unless otherwise indicated, all subsequent operation are done at 4° C. […] The homogenate is centrifuged first at low speed (3,000×g) for 10 min. […] A 100 ul aliquot is withdrawn and the protein content of the preparation is determined by the Lowry's method (Lowry, O. H., Rosebrough, N. F., Farr, A. L. and Randall, R. J., Protein measurement with Folin phenol reagent. J. Biol. Chem., […], 265-275, 1951). […]

IC50: 130 nM
SMILES: CCCCc1nc2ccc(COc3ccccc3)cc2c(=O)n1Cc1ccc(-c2ccccc2-c2nnn[nH]2)cc1 [Example 36, 2-Butyl-6-(phenoxymethyl)-3-[[2'-(1H-tetrazol-5-yl) [1,1'-biphenyl]-4-yl]methyl]-4(3H)-quinazolinone]
